Experimental data reported in PubChem BioAssay AID1963854 (Molecular Pharmacology Branch, DTP, NCI, 2024).

Tested on: 186277-243-T-J2-PDC complex spheroid viability
Test: Anticancer human tumor 186277-243-T-J2-PDC patient-derived colon adenocarcinoma cell line growth inhibition [POLQ]
Conditions: for IC50: curve of first compound; for viability, T/C: stronger effect = lower value
Experimental: Multicellular complex tumor spheroid response to Polymerase (POL) inhibitors (novobiocin, ART-558, RP6685) in combination with a variety of drugs and investigational agents in selected tumor cell lines
The POL inhibitors (novobiocin, ART-558, and RP6685) were evaluated both individually and in combination with standard of care and investigational anticancer small molecules within a complex spheroid model of solid tumors. . Complex spheroids include a stromal component modeled by human endothelial cells (HUVEC) and fibroblasts modeled by human mesenchymal stem cells (MSCs). The concentration ranges selected for each drug and investigational agent were based upon clinically achievable concentrations if the clinical Cmax of the agent was known.
Compounds. The drugs and investigational agents: novobiocin (NSC847541), ART-558 (NSC835418), RP-6685 (NSC848927), peposertib (NSC802822), ceralasertib (NSC780249), elimusertib (NSC800525), camonsertib (NSC841442), AZD-1390 (NSC803789), olaparib (NSC753686), talazoparib (NSC767125), rucaparib (NSC756644), sotorasib (NSC818433), MRTX-1133 (NSC836407), SN-38 (NSC673596), topotecan (NSC609699), epotoside (NSC141540), doxorubicin (NSC123127), gemcitabine (NSC613327), 5-fluorouracil (NSC19893), paclitaxel (NSC125973), vemurafenib (NSC761431), MSA-2 (NSC828583), SN-011 (NSC837082), adavosertib (NSC754352), prexasertib (NSC758257), carboplatin (NSC241240) and oxaliplatin (NSC266046), were obtained from the National Cancer Institute (NCI) Developmental Therapeutics Program Chemical Repository (21). The FDA-approved anticancer drug set is available from the Developmental Therapeutics Program at https://dtp.cancer.gov/organization/dscb/obtaining/. […] The stock solutions were prepared in dimethyl sulfoxide (DMSO, Sigma-Aldrich, St. Louis, MO, cat. D2650), except for the platinum compounds which were prepared in saline (Quality Biological, Gaithersburg, MD, cat. 114-055-101), at 800-fold the tested concentration and stored at -70 degrees C prior to their use. All drugs and investigational agents were tested over a range starting from a high concentration at or near the clinical Cmax and decreasing in half-log increments. If the clinical Cmax for an agent had not been determined, the highest concentration tested was 10 microM, except for SN-38, which was tested at a high concentration of 1 microM.
Cell Culture. All cells were maintained in an incubator at 37 degrees C and 5% CO2 with 95% humidity. The PDC lines were cultured according to standard operating procedures established by the NCI PDMR (https://pdmr.cancer.gov). Table 3 of the manuscript, lists the cell lines along with the number of the three cell types plated to form the mct-spheroids and media for tumor cell growth. After thawing, all PDC lines, except 997537-175-T-J1-PDC and 415267-285-R-J2-PDC, were cultured in Matrigel-coated flasks prepared with a working solution of 1X Ham's F-12 nutrient mix, without supplementation (Thermo Fisher Scientific, cat. 11765054), 100 U/mL penicillin-streptomycin (Thermo Fisher Scientific, cat. 15140122), and 2.5% Matrigel (Corning Inc., Corning, NY, cat. 354248) for the first three passages. The two PDC lines 997537-175-T-J1-PDC and 415267-285-R-J2-PDC were cultured on uncoated flasks. The 857933-349-R-J2-PDC line was cultured in 6C/Colon 1B media containing advanced DMEM/F-12 (Thermo Fisher Scientific, cat. 12634028), 10 mM HEPES (Thermo Fisher Scientific, cat. 15630080), 1X GlutaMAX supplement (Thermo Fisher Scientific, cat. 35050061), 0.1 mg/mL primocin (InvivoGen, San Diego, CA, cat. ant-pm-2), 10% defined fetal bovine serum, heat inactivated (HyClone Laboratories Inc., Logan, UT, cat. SH30070.03HI), 50% L-WRN conditioned media (ATCC, cat. CRL-3276), 1.25 mM N-Acetyl-L-cysteine (Sigma-Aldrich, cat. A9165), 10 mM nicotinamide (Sigma-Aldrich, cat. N0636), 1X B-27 supplement (Thermo Fisher Scientific, cat. 17504044), 1X N-2 supplement (Thermo Fisher Scientific, cat. […]

[1] = second compound 0.0316 µM, first compound 0.0316 µM
[2] = second compound 0.0316 µM, first compound 0.1 µM
[3] = second compound 0.0316 µM, first compound 0.316 µM
[4] = second compound 0.0316 µM, first compound 1 µM
[5] = second compound 0.1 µM, first compound 0.0316 µM
[6] = second compound 0.1 µM, first compound 0.1 µM
[7] = second compound 0.1 µM, first compound 0.316 µM
[8] = second compound 0.1 µM, first compound 1 µM
[9] = second compound 0.316 µM, first compound 0.0316 µM
[10] = second compound 0.316 µM, first compound 0.1 µM
[11] = second compound 0.316 µM, first compound 0.316 µM
[12] = second compound 0.316 µM, first compound 1 µM
[13] = second compound 1 µM, first compound 0.0316 µM
[14] = second compound 1 µM, first compound 0.1 µM
[15] = second compound 1 µM, first compound 0.316 µM
[16] = second compound 1 µM, first compound 1 µM
[17] = second compound 3.16 µM, first compound 0.0316 µM
[18] = second compound 3.16 µM, first compound 0.1 µM
[19] = second compound 3.16 µM, first compound 0.316 µM
[20] = second compound 3.16 µM, first compound 1 µM
[21] = second compound 10 µM, first compound 0.0316 µM
[22] = second compound 10 µM, first compound 0.1 µM
[23] = second compound 10 µM, first compound 0.316 µM
[24] = second compound 10 µM, first compound 1 µM
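Further: spheroids exposed to compounds for seven days.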
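Wherever viability, T/C is given: 100% = DMSO vehicle control viability.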

`C=CCn1c(=O)c2cnc(Nc3ccc(N4CCN(C)CC4)cc3)nc2n1-c1cccc(C(C)(C)O)n1` + COC1C(OC(N)=O)C(O)C(Oc2ccc3c(O)c(NC(=O)c4ccc(O)c(CC=C(C)C)c4)c(=O)oc3c2C)OC1(C)C gave an IC50 (second compound 0.0316 µM) of 189 nM, an IC50 (second compound 0.1 µM) of 185 nM and an IC50 (second compound 0.316 µM) of 190 nM. It also gave an IC50 (second compound 1 µM) of 182 nM, an IC50 (second compound 3.16 µM) of 177 nM and an IC50 (second compound 10 µM) of 178 nM. For the same compound, the viability, T/C (second compound 0.0316 µM, first compound 0.00316 µM) was 100%, the viability, T/C (second compound 0.0316 µM, first compound 0.01 µM) was 88.2% and the viability, T/C [1] was 109%. The viability, T/C [2] was 93.4%, the viability, T/C [3] was 14.8% and the viability, T/C [4] was 7.82%. For the same compound, the viability, T/C (second compound 0.1 µM, first compound 0.00316 µM) was 83.8%, the viability, T/C (second compound 0.1 µM, first compound 0.01 µM) was 97.8% and the viability, T/C [5] was 107%. It also gave a viability, T/C [6] of 91.3%, a viability, T/C [7] of 13.7% and a viability, T/C [8] of 7.76%. It also gave a viability, T/C (second compound 0.316 µM, first compound 0.00316 µM) of 93.4%, a viability, T/C (second compound 0.316 µM, first compound 0.01 µM) of 87.7% and a viability, T/C [9] of 99.2%. For the same compound, the viability, T/C [10] was 100%, the viability, T/C [11] was 14.1% and the viability, T/C [12] was 8.59%. It also gave a viability, T/C (second compound 1 µM, first compound 0.00316 µM) of 103%, a viability, T/C (second compound 1 µM, first compound 0.01 µM) of 104% and a viability, T/C [13] of 104%. For the same compound, the viability, T/C [14] was 91.8%, the viability, T/C [15] was 11.1% and the viability, T/C [16] was 8.27%. The viability, T/C (second compound 3.16 µM, first compound 0.00316 µM) was 104%, the viability, T/C (second compound 3.16 µM, first compound 0.01 µM) was 96.2% and the viability, T/C [17] was 109%. It also gave a viability, T/C [18] of 85.8%, a viability, T/C [19] of 13.5% and a viability, T/C [20] of 7.48%. It also gave a viability, T/C (second compound 10 µM, first compound 0.00316 µM) of 104%, a viability, T/C (second compound 10 µM, first compound 0.01 µM) of 110% and a viability, T/C [21] of 95.2%. The viability, T/C [22] was 87.6%, the viability, T/C [23] was 12% and the viability, T/C [24] was 7.75%.

With `CNCc1ccc(-c2[nH]c3cc(F)cc4c3c2CCNC4=O)cc1` + COC1C(OC(N)=O)C(O)C(Oc2ccc3c(O)c(NC(=O)c4ccc(O)c(CC=C(C)C)c4)c(=O)oc3c2C)OC1(C)C the IC50 (second compound 0.0316 µM) was greater than 10000 nM, the IC50 (second compound 0.1 µM) was greater than 10000 nM and the IC50 (second compound 0.316 µM) was greater than 10000 nM. For the same compound, the IC50 (second compound 1 µM) was greater than 10000 nM, the IC50 (second compound 3.16 µM) was greater than 10000 nM and the IC50 (second compound 10 µM) was greater than 10000 nM. The viability, T/C [1] was 99%, the viability, T/C [2] was 96.1% and the viability, T/C [3] was 91%. The viability, T/C [4] was 85.8%, the viability, T/C (second compound 0.0316 µM, first compound 3.16 µM) was 99.3% and the viability, T/C (second compound 0.0316 µM, first compound 10 µM) was 116%. It also gave a viability, T/C [5] of 102%, a viability, T/C [6] of 96.3% and a viability, T/C [7] of 106%. For the same compound, the viability, T/C [8] was 105%, the viability, T/C (second compound 0.1 µM, first compound 3.16 µM) was 106% and the viability, T/C (second compound 0.1 µM, first compound 10 µM) was 99%. For the same compound, the viability, T/C [9] was 110%, the viability, T/C [10] was 99.8% and the viability, T/C [11] was 102%. For the same compound, the viability, T/C [12] was 93.1%, the viability, T/C (second compound 0.316 µM, first compound 3.16 µM) was 115% and the viability, T/C (second compound 0.316 µM, first compound 10 µM) was 115%. For the same compound, the viability, T/C [13] was 87.1%, the viability, T/C [14] was 107% and the viability, T/C [15] was 101%. For the same compound, the viability, T/C [16] was 104%, the viability, T/C (second compound 1 µM, first compound 3.16 µM) was 102% and the viability, T/C (second compound 1 µM, first compound 10 µM) was 101%. The viability, T/C [17] was 87%, the viability, T/C [18] was 104% and the viability, T/C [19] was 108%. For the same compound, the viability, T/C [20] was 99.6%, the viability, T/C (second compound 3.16 µM, first compound 3.16 µM) was 109% and the viability, T/C (second compound 3.16 µM, first compound 10 µM) was 112%. The viability, T/C [21] was 103%, the viability, T/C [22] was 105% and the viability, T/C [23] was 104%. The viability, T/C [24] was 93.1%, the viability, T/C (second compound 10 µM, first compound 3.16 µM) was 104% and the viability, T/C (second compound 10 µM, first compound 10 µM) was 112%.
